Where two headings read alike, the source gives them in different places. Numbered stars: 1 amine (or outer) side, 2 acyl side, 3 side chain; on linkers, the order of the positions; unused ones are H or OH. Bridge positions count the residues as written; N and C are the ends. Peptide text beside a SMILES is read from it. * marks the point of attachment. C20 diacid = O=C(O)CCCCCCCCCCCCCCCCCCC(=O)*; γGlu = O=C(O)[C@H](CCC(=O)[*:2])N[*:1]

Series [1] can be described thus: ASSAY (III) ThT fibrillation assay for physical stability. It is filed as physicochemical. From the text:
Assay (III)—ThT Fibrillation Assays for the Assessment of Physical Stability of Protein Formulations Low physical stability of a polypeptide may lead to amyloid fibril formation, which is observed as well-ordered, thread-like macromolecular structures in the sample eventually resulting in gel formation. This has traditionally been measured by visual inspection of the sample. However, that kind of measurement is very subjective and depending on the observer. Therefore, the application of a small molecule indicator probe is much more advantageous. Thioflavin T (ThT) is such a probe and has a distinct fluorescence signature when binding to fibrils [Naiki et al. (1989) Anal. […] LeVine (1999) Methods. Enzymol. […], 274-284]. The time course for fibril formation can be described by a sigmoidal curve with the following expression [Nielsen et al. (2001) Biochemistry 40, 6036-6046]; […] Here, F is the ThT fluorescence at the time t. The constant t0 is the time needed to reach 50% of maximum fluorescence. […] Few of those intermediates nucleate to form a template onto which further intermediates may assembly and the fibrillation proceeds. The lag-time corresponds to the interval in which the critical mass of nucleus is built up and the apparent rate constant is the rate with which the fibril itself is formed. Sample Preparation Samples were prepared freshly before each assay. Each sample composition is described in each example. The pH of the sample was adjusted to the desired value using appropriate amounts of concentrated NaOH and HClO4 or HCl. Thioflavin T was added to the samples from a stock solution in H2O to a final concentration of 1 μM. Sample aliquots of 200 μl were placed in a 96 well microtiter plate (Packard OptiPlate™96, white polystyrene). Usually, four or eight replica of each sample (corresponding to one test condition) were placed in one column of wells. The plate was sealed with Scotch Pad (Qiagen). Incubation and Fluorescence Measurement Incubation at given temperature, shaking and measurement of the ThT fluorescence emission were done in a Fluoroskan Ascent FL fluorescence platereader or Varioskan platereader (Thermo Labsystems). The temperature was adjusted to 37° C. The orbital shaking was adjusted to 960 rpm with an amplitude of 1 mm in all the presented data. Fluorescence measurement was done using excitation through a 444 nm filter and measurement of emission through a 485 nm filter. Each run was initiated by incubating the plate at the assay temperature for 10 min. The plate was measured every 20 minutes for a desired period of time. Between each measurement, the plate was shaken and heated as described. Data Handling The measurement points were saved in Microsoft Excel format for further processing and curve drawing and fitting was performed using GraphPad Prism. The background emission from ThT in the absence of fibrils was negligible. The data points are typically a mean of four or eight samples and shown with standard deviation error bars. Only data obtained in the same experiment (i.e. samples on the same plate) are presented in the same graph ensuring a relative measure of fibrillation between experiments. The data set may be fitted to Eq. […] However, since full sigmodial curves in this case are not always achieved during the measurement time, the degree of fibrillation is expressed as ThT fluorescence tabulated as the mean of the samples and shown with the standard deviation at various time points. Measurement of Initial and Final Concentrations The polypeptide concentration in each of the tested formulations were measured both before application in the ThT fibrillation assay (“Initial”) and after completion of the ThT fibrillation (“After ThT assay”). Concentrations were determined by reverse HPLC methods using a pramlintide standard as a reference. Before measurement after completion 150 μl was collected from each of the replica and transferred to an Eppendorf tube. These were centrifuged at 30000 G for 40 mins. […]

The nature of series [2]: ASSAY (IV) determination of solubility. Format: physicochemical. The essentials:
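UPLC read-out of polypeptide concentration after centrifugation. Samples: aqueous polypeptide stock ([…]) + 100 mM buffer 1:1, glycylglycine pH 3.0–5.0 or bistrispropane pH 6.0–8.0; 18 h, RT.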

The mark [3] stands for this setting: bistrispropane buffer, pH 6.5, read-out: Solubility pH 6.5 Concentration.
The mark [4] stands for this setting: bistrispropane buffer, pH 7.5, read-out: Solubility pH 7.5 Concentration.
Where [5] appears, read: bistrispropane buffer, pH 6.0, read-out: Solubility pH 6.0 Concentration.
The mark [6] stands for this setting: bistrispropane buffer, pH 7.0, read-out: Solubility pH 7.0 Concentration.
The mark [7] stands for this setting: bistrispropane buffer, pH 8.0, read-out: Solubility pH 8.0 Concentration.
[8] abbreviates: glycylglycine buffer, pH 3.0, read-out: Solubility pH 3.0 Concentration.
Setting [9] is: glycylglycine buffer, pH 4.0, read-out: Solubility pH 4.0 Concentration.
[10] abbreviates: glycylglycine buffer, pH 5.0, read-out: Solubility pH 5.0 Concentration.

`CC[C@H](C)[C@H](NC(=O)[C@H](C)NC(=O)CNC(=O)[C@H](Cc1ccccc1)NC(=O)[C@H](CC(N)=O)NC(=O)[C@@H]1CCCN1C(=O)[C@H](CO)NC(=O)[C@H](CO)NC(=O)[C@H](Cc1c[nH]cn1)NC(=O)[C@H](CCCNC(=N)N)NC(=O)[C@H](CC(C)C)NC(=O)[C@H](Cc1ccccc1)NC(=O)[C@H](CCC(=O)O)NC(=O)[C@H](C)NC(=O)[C@H](CC(C)C)NC(=O)[C@H](CCCNC(=N)N)NC(=O)[C@H](CCC(N)=O)NC(=O)[C@@H](NC(=O)[C@H](C)NC(=O)[C@@H]1CSSC[C@H](NC(=O)[C@H](CCCCN)NC(=O)CC[C@H](NC(=O)CCCCCCCCCCCCCCCCCCC(=O)O)C(=O)O)C(=O)N[C@@H](CC(N)=O)C(=O)N[C@@H]([C@@H](C)O)C(=O)N[C@@H](C)C(=O)N[C@@H]([C@@H](C)O)C(=O)N1)[C@@H](C)O)C(=O)N1CCC[C@H]1C(=O)N[C@@H](CO)C(=O)N[C@@H](CO)C(=O)N[C@H](C(=O)N[C@@H](CC(N)=O)C(=O)N[C@H](C(=O)NCC(=O)N[C@@H](CO)C(=O)N[C@@H](CC(N)=O)C(=O)N[C@H](C(=O)N1CCC[C@H]1C(N)=O)[C@@H](C)O)C(C)C)[C@@H](C)O` [Example 8] ({C20 diacid-γGlu}-KCNTATCATQRLAEFLRHSSPNFGAIPSSTNVGSNTP-NH2; disulfide 2-7): the “ThT pH 4.0 lag time (h)” value in series [1] is 45 h. The solubility at 18 h in series [2] (setting [3]), in series [2] (setting [4]), in series [2] (setting [5]), in series [2] (setting [6]), in series [2] (setting [7]) and in series [2] (setting [8]) was ≥ 200 µM each time. Further, the solubility at 18 h in series [2] (setting [9]) and in series [2] (setting [10]) was ≥ 200 µM throughout.
With `CC[C@H](C)[C@H](NC(=O)[C@H](C)NC(=O)CNC(=O)[C@H](Cc1ccccc1)NC(=O)[C@H](CC(N)=O)NC(=O)[C@@H]1CCCN1C(=O)[C@H](CO)NC(=O)[C@H](CO)NC(=O)[C@H](Cc1c[nH]cn1)NC(=O)[C@H](CCCNC(=N)N)NC(=O)[C@H](CC(C)C)NC(=O)[C@H](Cc1ccccc1)NC(=O)[C@H](CC(=O)O)NC(=O)[C@H](C)NC(=O)[C@H](CC(C)C)NC(=O)[C@H](CCCNC(=N)N)NC(=O)[C@H](CCC(N)=O)NC(=O)[C@@H](NC(=O)[C@H](C)NC(=O)[C@@H]1CSSC[C@H](NC(=O)[C@H](CCCCN)NC(=O)CC[C@H](NC(=O)CCCCCCCCCCCCCCCCCCC(=O)O)C(=O)O)C(=O)N[C@@H](CC(N)=O)C(=O)N[C@@H]([C@@H](C)O)C(=O)N[C@@H](C)C(=O)N[C@@H]([C@@H](C)O)C(=O)N1)[C@@H](C)O)C(=O)N1CCC[C@H]1C(=O)N[C@@H](CO)C(=O)N[C@@H](CO)C(=O)N[C@H](C(=O)N[C@@H](CC(N)=O)C(=O)N[C@H](C(=O)NCC(=O)N[C@@H](CO)C(=O)N[C@@H](CC(N)=O)C(=O)N[C@H](C(=O)N1CCC[C@H]1C(N)=O)[C@@H](C)O)C(C)C)[C@@H](C)O` [Example 10] ({C20 diacid-γGlu}-KCNTATCATQRLADFLRHSSPNFGAIPSSTNVGSNTP-NH2; disulfide 2-7 (inferred)), in series [1], the “ThT pH 4.0 lag time (h)” value is 45 h. In addition, the solubility at 18 h in series [2] (setting [3]), in series [2] (setting [4]), in series [2] (setting [5]), in series [2] (setting [6]), in series [2] (setting [7]) and in series [2] (setting [8]) was ≥ 200 µM each time. Moreover, the solubility at 18 h in series [2] (setting [9]) and in series [2] (setting [10]) was ≥ 200 µM in each case.
Turning to `CC[C@H](C)[C@H](NC(=O)[C@H](C)NC(=O)CNC(=O)[C@H](Cc1ccccc1)NC(=O)[C@H](CC(N)=O)NC(=O)[C@@H]1CCCN1C(=O)[C@H](CO)NC(=O)[C@H](CO)NC(=O)[C@H](Cc1c[nH]cn1)NC(=O)[C@H](CCCNC(=N)N)NC(=O)[C@H](CC(C)C)NC(=O)[C@H](Cc1ccccc1)NC(=O)[C@H](CCC(=O)O)NC(=O)[C@H](C)NC(=O)[C@H](CC(C)C)NC(=O)[C@H](CCCNC(=N)N)NC(=O)[C@H](CCC(N)=O)NC(=O)[C@@H](NC(=O)[C@H](C)NC(=O)[C@@H]1CSSC[C@H](NC(=O)[C@H](CCCCN)NC(=O)CC[C@H](NC(=O)CCCCCCCCCCCCCCCCCCC(=O)O)C(=O)O)C(=O)N[C@@H](CC(N)=O)C(=O)N[C@@H]([C@@H](C)O)C(=O)N[C@@H](C)C(=O)N[C@@H]([C@@H](C)O)C(=O)N1)[C@@H](C)O)C(=O)N1CCC[C@H]1C(=O)N[C@@H](CO)C(=O)N[C@@H](CO)C(=O)N[C@H](C(=O)N[C@@H](CC(N)=O)C(=O)N[C@H](C(=O)NCC(=O)N[C@@H](CO)C(=O)N[C@@H](CC(=O)O)C(=O)N[C@H](C(=O)N1CCC[C@H]1C(N)=O)[C@@H](C)O)C(C)C)[C@@H](C)O` [Example 11] ({C20 diacid-γGlu}-KCNTATCATQRLAEFLRHSSPNFGAIPSSTNVGSDTP-NH2; disulfide 2-7 (inferred)), the “ThT pH 4.0 lag time (h)” value in series [1] turned out to be 45 h. The solubility at 18 h in series [2] (setting [3]), in series [2] (setting [4]), in series [2] (setting [5]), in series [2] (setting [6]), in series [2] (setting [7]) and in series [2] (setting [8]) was ≥ 200 µM each time. Also, the solubility at 18 h in series [2] (setting [9]) and in series [2] (setting [10]) was ≥ 200 µM in each case.
As to `CC[C@H](C)[C@H](NC(=O)[C@H](C)NC(=O)CNC(=O)[C@H](Cc1ccccc1)NC(=O)[C@H](CC(N)=O)NC(=O)[C@@H]1CCCN1C(=O)[C@H](CO)NC(=O)[C@H](CO)NC(=O)[C@H](Cc1c[nH]cn1)NC(=O)[C@H](CCCNC(=N)N)NC(=O)[C@H](CC(C)C)NC(=O)[C@H](Cc1ccccc1)NC(=O)[C@H](CCC(=O)O)NC(=O)[C@H](C)NC(=O)[C@H](CC(C)C)NC(=O)[C@H](CCCNC(=N)N)NC(=O)[C@H](CCC(N)=O)NC(=O)[C@@H](NC(=O)[C@H](C)NC(=O)[C@@H]1CSSC[C@H](NC(=O)[C@H](CCCCN)NC(=O)CC[C@H](NC(=O)CC[C@H](NC(=O)CCCCCCCCCCCCCCCCCCC(=O)O)C(=O)O)C(=O)O)C(=O)N[C@@H](CC(N)=O)C(=O)N[C@@H]([C@@H](C)O)C(=O)N[C@@H](C)C(=O)N[C@@H]([C@@H](C)O)C(=O)N1)[C@@H](C)O)C(=O)N1CCC[C@H]1C(=O)N[C@@H](CO)C(=O)N[C@@H](CO)C(=O)N[C@H](C(=O)N[C@@H](CC(N)=O)C(=O)N[C@H](C(=O)NCC(=O)N[C@@H](CO)C(=O)N[C@@H](CC(N)=O)C(=O)N[C@H](C(=O)N[C@@H](Cc1ccc(O)cc1)C(N)=O)[C@@H](C)O)C(C)C)[C@@H](C)O` [Example 15] ({C20 diacid-γGlu-γGlu}-KCNTATCATQRLAEFLRHSSPNFGAIPSSTNVGSNTY-NH2; disulfide 2-7 (inferred)), the “ThT pH 4.0 lag time (h)” value in series [1] is given as 45 h. The solubility at 18 h in series [2] (setting [3]), in series [2] (setting [4]), in series [2] (setting [5]), in series [2] (setting [6]), in series [2] (setting [7]) and in series [2] (setting [8]) was ≥ 200 µM each time. Moreover, the solubility at 18 h in series [2] (setting [9]) and in series [2] (setting [10]) was ≥ 200 µM throughout.

(Values after patent US9023789B2, “Amylin analogs and pharmaceutical compositions thereof” (Novo Nordisk A/S, priority 2012, dated 2015).)
